What is called IC50 is the midpoint of a concentration-inhibition curve. The term Kd denotes the equilibrium constant for the complex coming apart. The low end stands for higher affinity, the high end for lower affinity. What is called inhibition is the relative decrease from the control value, in per cent.

Chain of Beta-2 adrenergic receptor (Homo sapiens) (P07550 whole entry, looked up): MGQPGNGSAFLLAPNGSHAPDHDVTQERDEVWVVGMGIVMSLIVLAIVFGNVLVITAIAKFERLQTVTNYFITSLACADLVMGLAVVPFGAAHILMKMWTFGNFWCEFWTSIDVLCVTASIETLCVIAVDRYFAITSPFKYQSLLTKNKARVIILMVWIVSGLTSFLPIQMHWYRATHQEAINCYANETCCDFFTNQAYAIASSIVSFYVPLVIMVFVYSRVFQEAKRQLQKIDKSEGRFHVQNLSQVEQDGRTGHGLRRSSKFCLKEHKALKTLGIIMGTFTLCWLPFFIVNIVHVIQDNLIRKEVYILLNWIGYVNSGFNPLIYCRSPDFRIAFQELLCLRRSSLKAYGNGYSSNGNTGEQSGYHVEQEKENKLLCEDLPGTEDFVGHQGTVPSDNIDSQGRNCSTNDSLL

For one assay, the target named is Adrenergic receptor alpha-2 (Rattus norvegicus) (UniProt P22086+P19328+P22909). Kind of assay: Displacement of [3H]-RX 821002 from rat alpha2 adrenoceptor at 10 uM after 60 mins by scintillation counting analysis relative to control. In kind it is protein assay.
Conditions: not given
(In general: Loss of bound radioactivity is the signal in a displacement assay; it reports binding, not function.)
On to `C/C=C/Cn1cc(-c2ccc(C(=O)N3CCOCC3)cc2)c2cc[nH]c2c1=O`, for which the Activity was -7%.

The test system of a further assay is NCI-H1299. Kind of assay: Cytotoxicity against human NCI-H1299 cells measured after 8 days. Type of assay: functional, cell-based. As to conditions: NCI-H1299, 192 h.
`C/C=C/Cn1cc(-c2ccc(C(=O)N3CCOCC3)cc2)c2cc[nH]c2c1=O` displayed an IC50 of 20 µM.

For the next assay, the system named is SCC-3. Kind of assay: Cytotoxicity against human SCC-3 cells measured after 8 days. In kind it is functional, cell-based. As to conditions: SCC-3, 192 h.
`C/C=C/Cn1cc(-c2ccc(C(=O)N3CCOCC3)cc2)c2cc[nH]c2c1=O` returned an IC50 of 20 µM.

The subject of the next assay is Hs-578T. Kind of assay: Cytotoxicity against human Hs-578T cells measured after 8 days. As to conditions: 192 h. In kind it is functional, cell-based.
Compound `C/C=C/Cn1cc(-c2ccc(C(=O)N3CCOCC3)cc2)c2cc[nH]c2c1=O` gave a half-inhibitory concentration (IC50) of 20 µM.

A further assay relates to NCI-H647. Kind of assay: Cytotoxicity against human NCI-H647 cells measured after 8 days. Type of assay: functional, cell-based. Conditions: NCI-H647, 192 h.
In turn, `C/C=C/Cn1cc(-c2ccc(C(=O)N3CCOCC3)cc2)c2cc[nH]c2c1=O` had a half-maximal inhibitory concentration (IC50) of 20 µM.

In a further assay the test system is CAMA-1. Kind of assay: Cytotoxicity against human CAMA-1 cells measured after 8 days. Type of assay: functional, cell-based. As to conditions: CAMA-1, 192 h.
In turn, `C/C=C/Cn1cc(-c2ccc(C(=O)N3CCOCC3)cc2)c2cc[nH]c2c1=O` had an IC50 of 20 µM.

In another assay the target is T1, Muscarinic acetylcholine receptor M1 (Homo sapiens) (UniProt P11229).
T1 sequence (whole entry): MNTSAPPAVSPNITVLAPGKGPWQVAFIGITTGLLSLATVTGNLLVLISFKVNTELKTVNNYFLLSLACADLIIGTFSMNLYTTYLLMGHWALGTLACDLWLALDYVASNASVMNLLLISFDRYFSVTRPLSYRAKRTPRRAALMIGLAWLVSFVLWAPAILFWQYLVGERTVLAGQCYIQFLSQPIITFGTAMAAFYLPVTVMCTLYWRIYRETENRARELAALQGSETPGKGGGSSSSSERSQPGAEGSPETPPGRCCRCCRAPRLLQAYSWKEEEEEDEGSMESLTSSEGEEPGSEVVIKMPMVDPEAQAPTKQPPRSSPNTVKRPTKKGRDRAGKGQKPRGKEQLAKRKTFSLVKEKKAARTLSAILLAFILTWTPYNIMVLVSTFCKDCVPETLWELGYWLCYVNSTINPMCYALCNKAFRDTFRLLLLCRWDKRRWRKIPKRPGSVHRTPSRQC
Kind of assay: Displacement of [125I]pirenzepine from human recombinant M1 receptor at 10 uM after 60 mins by scintillation counting analysis relative to control.
Conditions: not given
On to `C/C=C/Cn1cc(-c2ccc(C(=O)N3CCOCC3)cc2)c2cc[nH]c2c1=O`, for which the Activity is -8%.

In the next assay the test system is NCI-H2452. Kind of assay: Cytotoxicity against human NCI-H2452 cells measured after 8 days. As to conditions: NCI-H2452, 192 h. Type of assay: functional, cell-based.
`C/C=C/Cn1cc(-c2ccc(C(=O)N3CCOCC3)cc2)c2cc[nH]c2c1=O` showed an IC50 of 20 µM.

The next assay concerns the target Bromodomain-containing protein 4 (Homo sapiens, UniProt O60885). Kind of assay: Displacement of biotinylated small-molecule ligand from recombinant His-tagged BRD4 bromodomain 1 (unknown origin) measured after 10 mins by TR-FRET assay.
Conditions: not given
(In general: TR-FRET usually uses a lanthanide donor and a delayed reading to cut background.)
Consider `C/C=C/Cn1cc(-c2ccc(C(=O)N3CCOCC3)cc2)c2cc[nH]c2c1=O`, for which the IC50 came out at 3.4 µM.

For the compound `C/C=C/Cn1cc(-c2cc(OC)c(C(C)(C)O)cc2OC)c2cc(C)[nH]c2c1=O`, the IC50 was above 20 µM.

The test system of a further assay is CAL-51. Kind of assay: Cytotoxicity against human CAL-51 cells measured after 8 days. In kind it is functional, cell-based. Conditions: CAL-51, 192 h.
`C/C=C/Cn1cc(-c2ccc(C(=O)N3CCOCC3)cc2)c2cc[nH]c2c1=O` gave an IC50 of 20 µM.

The next assay deals with HCC1954. Kind of assay: Cytotoxicity against human HCC1954 cells measured after 8 days. Type of assay: functional, cell-based. Conditions: HCC1954, 192 h.
Regarding `C/C=C/Cn1cc(-c2ccc(C(=O)N3CCOCC3)cc2)c2cc[nH]c2c1=O`, the IC50 was determined as 20 µM.

For a further assay, the target named is Nucleosome-remodeling factor subunit BPTF (Homo sapiens, UniProt Q12830). Kind of assay: Binding affinity to human partial length FALZ (S2791 to H2911 residues) expressed in bacterial expression system by BROMOscan assay.
Conditions: not given
Turning to `C/C=C/Cn1cc(-c2ccc(C(=O)N3CCOCC3)cc2)c2cc[nH]c2c1=O`, the Kd was above 10 µM.

`C/C=C/Cn1cc(-c2cc(OC)c(C(C)(C)O)cc2OC)c2cc(C)[nH]c2c1=O` gave a Kd above 10 µM.

In the next assay the target is Macrophage colony-stimulating factor 1 receptor (Homo sapiens) (UniProt P07333). Kind of assay: Inhibition of CSF1R (unknown origin) at 1 uM relative to control.
Chain of Macrophage colony-stimulating factor 1 receptor (Homo sapiens) (P07333 whole entry): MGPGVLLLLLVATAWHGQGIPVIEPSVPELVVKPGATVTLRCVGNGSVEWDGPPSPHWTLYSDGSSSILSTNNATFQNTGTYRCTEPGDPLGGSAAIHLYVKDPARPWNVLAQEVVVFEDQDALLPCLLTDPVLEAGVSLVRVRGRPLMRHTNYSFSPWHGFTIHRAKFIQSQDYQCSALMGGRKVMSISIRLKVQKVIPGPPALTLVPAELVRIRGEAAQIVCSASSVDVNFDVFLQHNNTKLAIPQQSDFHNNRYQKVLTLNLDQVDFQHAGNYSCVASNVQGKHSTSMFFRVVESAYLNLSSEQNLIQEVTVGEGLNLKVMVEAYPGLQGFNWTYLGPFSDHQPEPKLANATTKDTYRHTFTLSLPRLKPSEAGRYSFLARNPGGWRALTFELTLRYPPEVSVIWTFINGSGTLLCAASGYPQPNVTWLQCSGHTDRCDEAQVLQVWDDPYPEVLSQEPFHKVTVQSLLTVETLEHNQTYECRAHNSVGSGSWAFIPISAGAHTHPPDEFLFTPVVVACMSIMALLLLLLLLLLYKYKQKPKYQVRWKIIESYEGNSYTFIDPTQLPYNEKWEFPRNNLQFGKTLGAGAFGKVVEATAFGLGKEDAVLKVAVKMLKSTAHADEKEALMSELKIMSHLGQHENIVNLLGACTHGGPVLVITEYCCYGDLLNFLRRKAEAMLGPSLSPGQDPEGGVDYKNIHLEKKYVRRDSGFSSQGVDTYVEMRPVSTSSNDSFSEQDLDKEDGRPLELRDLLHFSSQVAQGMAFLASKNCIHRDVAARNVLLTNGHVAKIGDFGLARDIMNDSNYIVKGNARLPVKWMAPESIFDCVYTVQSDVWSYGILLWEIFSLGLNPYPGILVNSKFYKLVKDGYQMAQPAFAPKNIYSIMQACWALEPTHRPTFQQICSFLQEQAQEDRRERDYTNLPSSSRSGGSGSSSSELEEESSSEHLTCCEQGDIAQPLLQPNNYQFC
Conditions: not given
For the compound `C/C=C/Cn1cc(-c2ccc(C(=O)N3CCOCC3)cc2)c2cc[nH]c2c1=O`, the inhibition was determined as 2.8%.

The next assay addresses Beta-2 adrenergic receptor (Homo sapiens) (UniProt P07550). Kind of assay: Displacement of [3H](-)CGP 12177 from human recombinant beta2 adrenoceptor at 10 uM after 120 mins by scintillation counting analysis relative to control.
Conditions: not given
In the case of `C/C=C/Cn1cc(-c2ccc(C(=O)N3CCOCC3)cc2)c2cc[nH]c2c1=O`, the Activity turned out to be 1%.

In the next assay the target is Histone acetyltransferase p300 (Homo sapiens, UniProt Q09472). Kind of assay: Binding affinity to human partial length EP300 (A1040 to G1161 residues) expressed in bacterial expression system by BROMOscan assay.
Chain of Histone acetyltransferase p300 (Q09472 whole entry, the tested form may be a part): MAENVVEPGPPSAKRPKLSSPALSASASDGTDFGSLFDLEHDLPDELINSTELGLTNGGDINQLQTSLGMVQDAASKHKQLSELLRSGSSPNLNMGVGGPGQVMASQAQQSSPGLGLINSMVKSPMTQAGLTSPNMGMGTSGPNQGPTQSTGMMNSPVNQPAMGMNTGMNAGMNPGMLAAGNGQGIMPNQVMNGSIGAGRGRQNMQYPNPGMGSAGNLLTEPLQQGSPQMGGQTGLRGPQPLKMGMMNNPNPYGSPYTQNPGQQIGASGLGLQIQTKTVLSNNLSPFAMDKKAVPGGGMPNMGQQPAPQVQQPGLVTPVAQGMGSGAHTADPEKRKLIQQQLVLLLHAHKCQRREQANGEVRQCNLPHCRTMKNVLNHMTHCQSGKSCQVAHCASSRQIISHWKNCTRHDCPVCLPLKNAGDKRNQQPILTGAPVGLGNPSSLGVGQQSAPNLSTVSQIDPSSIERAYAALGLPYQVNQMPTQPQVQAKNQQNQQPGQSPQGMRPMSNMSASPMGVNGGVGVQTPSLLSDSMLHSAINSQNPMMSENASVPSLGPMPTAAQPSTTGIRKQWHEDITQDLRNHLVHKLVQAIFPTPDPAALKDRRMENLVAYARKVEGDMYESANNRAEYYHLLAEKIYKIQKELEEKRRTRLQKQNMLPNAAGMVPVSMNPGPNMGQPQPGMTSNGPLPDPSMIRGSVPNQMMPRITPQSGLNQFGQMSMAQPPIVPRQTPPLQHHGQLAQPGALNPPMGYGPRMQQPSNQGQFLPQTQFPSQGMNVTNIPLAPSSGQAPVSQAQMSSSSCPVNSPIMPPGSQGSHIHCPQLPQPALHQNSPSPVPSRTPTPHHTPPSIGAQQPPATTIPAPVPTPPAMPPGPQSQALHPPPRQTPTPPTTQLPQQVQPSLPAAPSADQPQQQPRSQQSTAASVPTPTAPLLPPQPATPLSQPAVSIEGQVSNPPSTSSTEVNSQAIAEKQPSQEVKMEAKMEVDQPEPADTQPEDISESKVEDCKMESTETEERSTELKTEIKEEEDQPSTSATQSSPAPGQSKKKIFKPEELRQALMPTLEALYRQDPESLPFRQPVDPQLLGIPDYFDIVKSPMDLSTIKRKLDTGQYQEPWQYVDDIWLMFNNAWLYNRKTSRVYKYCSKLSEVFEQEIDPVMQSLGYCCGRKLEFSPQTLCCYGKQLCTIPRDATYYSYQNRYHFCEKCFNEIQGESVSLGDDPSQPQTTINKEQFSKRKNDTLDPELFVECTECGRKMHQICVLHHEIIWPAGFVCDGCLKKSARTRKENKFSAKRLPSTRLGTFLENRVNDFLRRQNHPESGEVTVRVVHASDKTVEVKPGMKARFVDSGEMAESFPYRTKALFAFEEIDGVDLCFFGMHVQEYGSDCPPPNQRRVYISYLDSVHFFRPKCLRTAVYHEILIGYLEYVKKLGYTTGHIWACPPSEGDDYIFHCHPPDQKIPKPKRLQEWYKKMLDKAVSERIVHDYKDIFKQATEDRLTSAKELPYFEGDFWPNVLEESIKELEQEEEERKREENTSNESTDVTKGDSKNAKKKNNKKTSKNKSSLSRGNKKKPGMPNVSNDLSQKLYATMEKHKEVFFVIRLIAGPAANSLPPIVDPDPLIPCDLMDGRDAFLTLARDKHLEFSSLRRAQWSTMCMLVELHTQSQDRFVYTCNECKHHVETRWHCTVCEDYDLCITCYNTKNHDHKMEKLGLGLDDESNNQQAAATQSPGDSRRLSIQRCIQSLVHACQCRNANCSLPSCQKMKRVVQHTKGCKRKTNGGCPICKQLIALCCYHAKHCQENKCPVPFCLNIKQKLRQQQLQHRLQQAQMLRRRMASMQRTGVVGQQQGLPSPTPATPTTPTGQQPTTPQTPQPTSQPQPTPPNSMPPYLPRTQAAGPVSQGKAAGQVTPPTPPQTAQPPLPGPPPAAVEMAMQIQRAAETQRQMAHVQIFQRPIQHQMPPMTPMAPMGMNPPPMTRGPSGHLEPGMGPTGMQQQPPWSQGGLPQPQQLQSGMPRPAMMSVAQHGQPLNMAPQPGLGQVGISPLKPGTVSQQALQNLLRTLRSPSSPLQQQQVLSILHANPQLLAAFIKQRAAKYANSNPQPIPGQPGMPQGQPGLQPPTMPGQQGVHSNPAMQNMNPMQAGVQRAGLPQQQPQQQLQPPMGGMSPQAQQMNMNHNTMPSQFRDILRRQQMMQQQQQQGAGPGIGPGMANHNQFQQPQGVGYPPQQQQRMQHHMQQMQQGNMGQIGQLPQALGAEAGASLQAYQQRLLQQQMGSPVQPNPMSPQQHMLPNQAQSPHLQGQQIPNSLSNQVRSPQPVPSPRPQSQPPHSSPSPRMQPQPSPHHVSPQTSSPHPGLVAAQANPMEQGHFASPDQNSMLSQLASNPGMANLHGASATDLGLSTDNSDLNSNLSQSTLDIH
Conditions: not given
`C/C=C/Cn1cc(-c2ccc(C(=O)N3CCOCC3)cc2)c2cc[nH]c2c1=O` showed a Kd above 10 µM.

`C/C=C/Cn1cc(-c2cc(OC)c(C(C)(C)O)cc2OC)c2cc(C)[nH]c2c1=O` had a Kd above 10 µM.

System in another assay: not listed separately
Kind of assay: Cytotoxicity against human MDST8 cells measured after 8 days. In kind it is functional, cell-based. Conditions: MDST8, 192 h.
`C/C=C/Cn1cc(-c2ccc(C(=O)N3CCOCC3)cc2)c2cc[nH]c2c1=O` returned a half-inhibitory concentration (IC50) of 20 µM.

The subject of a further assay is MEL-HO. Kind of assay: Cytotoxicity against human MEL-HO cells measured after 8 days. Type of assay: functional, cell-based. Conditions: 192 h.
For the compound `C/C=C/Cn1cc(-c2ccc(C(=O)N3CCOCC3)cc2)c2cc[nH]c2c1=O`, half-maximal inhibition (IC50) was put at 20 µM.

A further assay concerns the target Bromodomain testis-specific protein (Homo sapiens, UniProt Q58F21). Kind of assay: Binding affinity to BRDT bromodomain 1/2 (unknown origin) by BROMOscan assay.
Conditions: not given
In turn, `C/C=C/Cn1cc(-c2ccc(C(=O)N3CCOCC3)cc2)c2cc[nH]c2c1=O` displayed a Kd of 2.9 µM. This counts as single-digit micromolar.

With `C/C=C/Cn1cc(-c2cc(OC)c(C(C)(C)O)cc2OC)c2cc(C)[nH]c2c1=O`, the affinity, expressed as Kd, was 6.2 µM.

The subject of another assay is HCT-116. Kind of assay: Cytotoxicity against human HCT-116 cells measured after 8 days. Type of assay: functional, cell-based. As to conditions: HCT-116, 192 h.
`C/C=C/Cn1cc(-c2ccc(C(=O)N3CCOCC3)cc2)c2cc[nH]c2c1=O` came in with an IC50 of 20 µM.

A further assay deals with T2, Bromodomain and PHD finger-containing protein 3 (Homo sapiens, UniProt Q9ULD4).
T2 sequence (Q9ULD4 whole entry): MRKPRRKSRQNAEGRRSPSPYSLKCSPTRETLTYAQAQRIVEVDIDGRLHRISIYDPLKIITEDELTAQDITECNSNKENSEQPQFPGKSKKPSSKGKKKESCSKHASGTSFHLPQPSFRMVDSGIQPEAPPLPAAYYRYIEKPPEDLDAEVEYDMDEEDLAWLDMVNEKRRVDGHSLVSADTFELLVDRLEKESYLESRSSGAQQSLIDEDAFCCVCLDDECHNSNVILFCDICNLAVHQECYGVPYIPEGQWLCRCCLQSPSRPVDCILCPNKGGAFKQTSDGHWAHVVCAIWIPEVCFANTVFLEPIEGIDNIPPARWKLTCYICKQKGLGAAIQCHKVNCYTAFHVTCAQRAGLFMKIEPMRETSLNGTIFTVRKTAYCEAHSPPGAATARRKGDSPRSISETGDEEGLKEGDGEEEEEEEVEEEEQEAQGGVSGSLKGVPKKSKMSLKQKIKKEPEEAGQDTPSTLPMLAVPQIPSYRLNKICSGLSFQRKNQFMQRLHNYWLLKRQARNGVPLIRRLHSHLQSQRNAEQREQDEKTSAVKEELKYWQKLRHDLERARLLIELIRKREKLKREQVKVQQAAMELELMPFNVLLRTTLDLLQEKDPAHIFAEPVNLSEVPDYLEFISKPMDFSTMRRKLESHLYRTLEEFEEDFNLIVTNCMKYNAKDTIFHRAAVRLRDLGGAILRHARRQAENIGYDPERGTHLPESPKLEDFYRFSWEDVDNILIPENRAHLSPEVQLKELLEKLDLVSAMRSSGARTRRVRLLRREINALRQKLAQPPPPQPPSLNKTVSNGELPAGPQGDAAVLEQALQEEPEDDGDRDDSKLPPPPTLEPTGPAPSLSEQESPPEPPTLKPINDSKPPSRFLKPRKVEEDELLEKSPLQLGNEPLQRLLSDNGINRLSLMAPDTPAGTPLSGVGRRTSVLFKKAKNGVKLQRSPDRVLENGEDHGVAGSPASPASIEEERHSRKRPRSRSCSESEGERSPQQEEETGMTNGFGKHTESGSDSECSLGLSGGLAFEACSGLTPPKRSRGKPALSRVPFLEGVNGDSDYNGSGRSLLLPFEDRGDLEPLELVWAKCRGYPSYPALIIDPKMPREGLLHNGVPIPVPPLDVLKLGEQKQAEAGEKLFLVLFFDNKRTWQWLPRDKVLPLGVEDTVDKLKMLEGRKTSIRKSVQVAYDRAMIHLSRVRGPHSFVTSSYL
Kind of assay: Binding affinity to human partial length BRPF3 (E588 to G701 residues) expressed in bacterial expression system by BROMOscan assay.
Conditions: not given
In the case of `C/C=C/Cn1cc(-c2ccc(C(=O)N3CCOCC3)cc2)c2cc[nH]c2c1=O`, the Kd was above 10 µM.

`C/C=C/Cn1cc(-c2cc(OC)c(C(C)(C)O)cc2OC)c2cc(C)[nH]c2c1=O` had a Kd above 10 µM.

System in a further assay: not listed separately
Kind of assay: Cytotoxicity against human EB1 cells measured after 8 days. Type of assay: functional, cell-based. Conditions: EB1, 192 h.
For the compound `C/C=C/Cn1cc(-c2ccc(C(=O)N3CCOCC3)cc2)c2cc[nH]c2c1=O`, the IC50 worked out at 20 µM.

The next assay relates to COLO-678. Kind of assay: Cytotoxicity against human COLO-678 cells measured after 8 days. As to conditions: COLO-678, 192 h. Type of assay: functional, cell-based.
In turn, `C/C=C/Cn1cc(-c2ccc(C(=O)N3CCOCC3)cc2)c2cc[nH]c2c1=O` showed an IC50 of 20 µM.

(Values after ChEMBL document CHEMBL5260810, “Inhibition of bromodomain-containing protein 9 for the prevention of epigenetically-defined drug resistance” (Bioorg Med Chem Lett, 2017).)
